A value given as a limit tells only on which side of the number the result lay.

Data set [1] can be described thus: Cytotoxicity against HEK293 cells by MTT assay. The format is toxicity, cell-based. The note with it: human.
Another data set concerns the target Histone deacetylase 3 (Homo sapiens, UniProt O15379). The data set can be described thus: Inhibition of HDAC3 (unknown origin).
Data set [2] in a line: Selectivity index, ratio of CC50 for cytotoxicity against HEK293 cells to IC50 for cytotoxicity against human A549 cells. It is filed as toxicity, cell-based. As to conditions: HEK293 cells and A549 cells, read-out: Ratio CC50/IC50.
Data set [3] deals with MCF7. Kind of data set: Cytotoxicity against human MCF7 cells assessed as inhibition of cell growth by MTT assay. It is filed as functional, cell-based.
A further data set concerns Jurkat E6.1. Kind of data set: Cytotoxicity against human Jurkat E6.1 cells assessed as inhibition of cell growth by MTT assay. It is filed as functional, cell-based.
For a further data set, the system named is HeLa. Kind of data set: Cytotoxicity against human HeLa cells assessed as inhibition of cell growth by MTT assay. It is filed as functional, cell-based.
Data set [4] is described as follows: Selectivity index, ratio of CC50 for cytotoxicity against HEK293 cells to IC50 for cytotoxicity against mouse B16-F10 cells. It is filed as toxicity, cell-based. As to conditions: human, HEK293 cells and B16-F10 cells; read-out: Ratio CC50/IC50.
In the next data set the test system is B16-F10. Kind of data set: Cytotoxicity against mouse B16-F10 cells assessed as inhibition of cell growth by MTT assay. It is filed as functional, cell-based.
A short description of data set [5]: Selectivity index, ratio of CC50 for cytotoxicity against HEK293 cells to IC50 for cytotoxicity against human MCF7 cells. It is filed as toxicity, cell-based. The note with it: HEK293 cells and MCF7 cells, read-out: Ratio CC50/IC50.
Data set [6] in a line: Selectivity index, ratio of CC50 for cytotoxicity against HEK293 cells to IC50 for cytotoxicity against human HeLa cells. The format is toxicity, cell-based. As to conditions: HEK293 cells and HeLa cells, read-out: Ratio CC50/IC50.
Data set [7] is described as follows: Selectivity index, ratio of CC50 for cytotoxicity against HEK293 cells to IC50 for cytotoxicity against human Jurkat E6.1 cells. It is filed as toxicity, cell-based. As to conditions: HEK293 cells and Jurkat E6.1 cells, read-out: Ratio CC50/IC50.
The subject of data set [8] is A549. The data set can be described thus: Cytotoxicity against human A549 cells assessed as inhibition of cell growth by MTT assay. The format is functional, cell-based.
The next data set relates to SMMC-7721. Kind of data set: Cytotoxicity against human SMMC-7721 cells assessed as inhibition of cell growth by MTT assay. The format is functional, cell-based.
The subject of another data set is HepG2. The data set can be described thus: Cytotoxicity against human HepG2 cells assessed as inhibition of cell growth by MTT assay. The format is functional, cell-based.
Another data set concerns NCI-H1299. The data set can be described thus: Cytotoxicity against human NCI-H1299 cells assessed as inhibition of cell growth by MTT assay. It is filed as functional, cell-based.
In data set [9] the test system is HCT-116. Kind of data set: Cytotoxicity against human HCT-116 cells assessed as inhibition of cell growth by MTT assay. It is filed as functional, cell-based.
Data set [10] concerns HT-29. The data set can be described thus: Antitumor activity against human HT-29 cells xenografted in mouse assessed as tumor growth inhibition at 25 mg/kg, po relative to control. The format is functional. As to conditions: read-out: TGI.
Data set [11] deals with HT-29. The data set can be described thus: Antitumor activity against human HT-29 cells xenografted in mouse assessed as tumor growth inhibition at 100 mg/kg, po relative to control. The format is functional. The note with it: read-out: TGI.
The test system of data set [12] is HT-29. Kind of data set: Antitumor activity against human HT-29 cells xenografted in mouse assessed as tumor growth inhibition at 50 mg/kg, po relative to control. As to conditions: read-out: TGI. It is filed as functional.
Data set [13] deals with DLD-1. Kind of data set: Cytotoxicity against human DLD-1 cells assessed as inhibition of cell growth by SRB assay. The format is functional, cell-based.
Data set [14] concerns HT-29. Kind of data set: Cytotoxicity against human HT-29 cells assessed as inhibition of cell growth by MTT assay. The format is functional, cell-based.
Data set [15] relates to MCF7. Kind of data set: Potency index, ratio of vorinostat IC50 to test compound IC50 for cytotoxicity against human MCF7 cells. It is filed as functional.
Data set [16] has as its system 518A2. The data set can be described thus: Potency index, ratio of vorinostat IC50 to test compound IC50 for cytotoxicity against human 518A2 cells. It is filed as functional.
Data set [17] can be described thus: Cytotoxicity against human HDFa cells assessed as inhibition of cell proliferation by MTT assay. The format is toxicity, cell-based.
Data set [18] deals with 518A2. Kind of data set: Cytotoxicity against human 518A2 cells assessed as inhibition of cell growth by MTT assay. It is filed as functional, cell-based.
Data set [19] has as its system HT-29. Kind of data set: Potency index, ratio of vorinostat IC50 to test compound IC50 for cytotoxicity against human HT-29 cells. The format is functional.
For data set [20], the system named is DLD-1. The data set can be described thus: Potency index, ratio of vorinostat IC50 to test compound IC50 for cytotoxicity against human DLD-1 cells. The format is functional.
Data set [21] has as its system KB-V1. The data set can be described thus: Cytotoxicity against human KB-V1 cells assessed as inhibition of cell growth by MTT assay. The format is functional, cell-based.
The nature of data set [22]: Selectivity index, ratio of IC50 for cytotoxicity against human HDFa cells to IC50 for cytotoxicity against human 518A2 cells. It is filed as toxicity, cell-based. The note with it: HDFa cells and 518A2 cells, pooled result: one value given for 6 cell lines, strains, targets or settings, read-out: Ratio IC50.
The next data set relates to EA.hy 926. Kind of data set: Potency index, ratio of vorinostat IC50 to test compound IC50 for cytotoxicity against human EA.hy 926 cells. The format is functional.
The test system of data set [23] is KB-V1. Kind of data set: Potency index, ratio of vorinostat IC50 to test compound IC50 for cytotoxicity against human KB-V1 cells. The format is functional.
Data set [24] deals with T1, Protein deacetylase HDAC6 (Homo sapiens, UniProt Q9UBN7).
T1 sequence (Q9UBN7 whole entry): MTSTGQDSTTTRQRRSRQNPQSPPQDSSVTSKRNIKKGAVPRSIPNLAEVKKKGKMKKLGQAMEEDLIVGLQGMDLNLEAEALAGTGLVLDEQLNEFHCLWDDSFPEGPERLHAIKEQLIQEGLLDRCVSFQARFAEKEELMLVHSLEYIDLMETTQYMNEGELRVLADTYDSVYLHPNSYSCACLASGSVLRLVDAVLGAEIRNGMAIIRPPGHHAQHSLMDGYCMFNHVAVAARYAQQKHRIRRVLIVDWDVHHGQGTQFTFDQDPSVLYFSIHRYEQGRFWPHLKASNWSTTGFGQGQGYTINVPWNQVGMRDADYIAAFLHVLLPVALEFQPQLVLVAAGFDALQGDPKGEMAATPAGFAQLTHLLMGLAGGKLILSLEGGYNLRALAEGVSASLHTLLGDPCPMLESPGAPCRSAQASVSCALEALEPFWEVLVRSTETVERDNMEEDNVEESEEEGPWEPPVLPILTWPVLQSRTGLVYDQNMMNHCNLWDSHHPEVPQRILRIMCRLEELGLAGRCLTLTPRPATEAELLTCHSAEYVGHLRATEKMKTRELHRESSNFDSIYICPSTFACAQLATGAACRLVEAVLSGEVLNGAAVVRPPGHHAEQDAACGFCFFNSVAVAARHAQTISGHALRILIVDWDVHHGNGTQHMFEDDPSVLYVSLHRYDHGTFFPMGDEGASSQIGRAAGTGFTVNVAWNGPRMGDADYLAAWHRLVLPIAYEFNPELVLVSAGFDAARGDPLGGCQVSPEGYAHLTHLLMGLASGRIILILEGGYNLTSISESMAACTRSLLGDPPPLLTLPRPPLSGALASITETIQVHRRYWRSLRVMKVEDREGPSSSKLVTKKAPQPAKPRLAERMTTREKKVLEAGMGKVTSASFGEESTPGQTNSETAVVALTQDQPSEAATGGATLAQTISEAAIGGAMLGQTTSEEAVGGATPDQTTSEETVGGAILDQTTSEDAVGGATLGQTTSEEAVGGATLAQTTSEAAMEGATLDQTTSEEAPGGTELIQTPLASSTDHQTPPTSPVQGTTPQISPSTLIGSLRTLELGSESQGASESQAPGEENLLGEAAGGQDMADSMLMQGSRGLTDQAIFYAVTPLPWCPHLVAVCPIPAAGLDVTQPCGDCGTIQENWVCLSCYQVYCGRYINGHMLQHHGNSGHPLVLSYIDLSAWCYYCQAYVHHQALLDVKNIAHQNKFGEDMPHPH
Kind of data set: Inhibition of HDAC6 (unknown origin).

The test system of data set [25] is HCT-116. The data set can be described thus: Cytotoxicity against human HCT-116 cells assessed as inhibition of cell growth by SRB assay. The format is functional, cell-based.
For another data set, the target named is Histone deacetylase 1 (Homo sapiens, UniProt Q13547). The data set can be described thus: Inhibition of HDAC1 (unknown origin).
Data set [26] has as its system ASPC1. Kind of data set: Cytotoxicity against human ASPC1 cells assessed as inhibition of cell growth by MTT assay. It is filed as functional, cell-based.
For data set [27], the system named is ASPC1. Kind of data set: Cytotoxicity against human ASPC1 cells assessed as inhibition of cell growth by SRB assay. The format is functional, cell-based.
Data set [28] concerns MDA-MB-231. The data set can be described thus: Cytotoxicity against human MDA-MB-231 cells assessed as inhibition of cell growth by SRB assay. The format is functional, cell-based.
The subject of data set [29] is HCT-116. Kind of data set: Antitumor activity against human HCT-116 cells xenografted in mouse assessed as tumor growth inhibition at 15 mg/kg, iv relative to control. It is filed as functional. As to conditions: read-out: TGI.
Another data set has as its target Histone deacetylase 2 (Homo sapiens, UniProt Q92769). The data set can be described thus: Inhibition of HDAC2 (unknown origin).
Data set [30] has as its system A549. The data set can be described thus: Cytotoxicity against human A549 cells assessed as inhibition of cell growth by SRB assay. It is filed as functional.
The next data set has as its system Ehrlich. Kind of data set: Antitumor activity against mouse EAC cells implanted in mouse assessed as survival rate at 125 mg/kg, ip administered for 10 days. It is filed as functional. As to conditions: 240 h, time 10 day.
Data set [31] deals with MCF7. Kind of data set: Cytotoxicity against human MCF7 cells assessed as inhibition of cell growth measured after 24 hrs by MTT assay. The format is functional, cell-based. As to conditions: MCF7, 24 h.
The subject of data set [32] is MDA-MB-231. Kind of data set: Cytotoxicity against human MDA-MB-231 cells assessed as inhibition of cell growth measured after 24 hrs by MTT assay. It is filed as functional, cell-based. As to conditions: MDA-MB-231, 24 h.
The test system of data set [33] is HCT-116. The data set can be described thus: Cytotoxicity against human HCT-116 cells assessed as inhibition of cell growth measured after 24 hrs by MTT assay. The format is functional, cell-based. As to conditions: HCT-116, 24 h.

Histone deacetylase 3, sequence (O15379 whole entry): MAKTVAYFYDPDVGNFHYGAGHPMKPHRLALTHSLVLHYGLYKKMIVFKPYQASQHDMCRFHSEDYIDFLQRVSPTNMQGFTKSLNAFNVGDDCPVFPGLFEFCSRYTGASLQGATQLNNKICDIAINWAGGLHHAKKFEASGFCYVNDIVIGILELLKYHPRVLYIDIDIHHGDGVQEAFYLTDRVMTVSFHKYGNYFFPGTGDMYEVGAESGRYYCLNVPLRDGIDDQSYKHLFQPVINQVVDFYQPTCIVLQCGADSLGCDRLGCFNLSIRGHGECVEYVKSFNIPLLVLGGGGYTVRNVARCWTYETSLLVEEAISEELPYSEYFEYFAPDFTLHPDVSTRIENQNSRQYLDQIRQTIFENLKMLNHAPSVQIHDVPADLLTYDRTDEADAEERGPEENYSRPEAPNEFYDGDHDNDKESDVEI
Histone deacetylase 2, sequence (Q92769 whole entry): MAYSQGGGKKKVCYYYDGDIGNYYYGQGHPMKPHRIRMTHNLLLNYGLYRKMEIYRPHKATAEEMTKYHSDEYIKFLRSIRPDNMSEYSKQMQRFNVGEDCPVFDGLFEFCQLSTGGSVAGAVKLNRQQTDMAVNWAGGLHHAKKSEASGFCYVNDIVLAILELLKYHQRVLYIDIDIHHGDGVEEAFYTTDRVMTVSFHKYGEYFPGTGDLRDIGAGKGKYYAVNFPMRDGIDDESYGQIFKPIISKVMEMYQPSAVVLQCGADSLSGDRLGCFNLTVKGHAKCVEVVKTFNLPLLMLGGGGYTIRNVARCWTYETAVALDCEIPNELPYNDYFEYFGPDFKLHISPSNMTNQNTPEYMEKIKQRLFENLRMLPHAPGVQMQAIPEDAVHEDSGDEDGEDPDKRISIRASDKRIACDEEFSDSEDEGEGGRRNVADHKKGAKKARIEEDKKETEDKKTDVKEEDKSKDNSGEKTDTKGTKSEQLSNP
Histone deacetylase 1, sequence (Q13547 whole entry): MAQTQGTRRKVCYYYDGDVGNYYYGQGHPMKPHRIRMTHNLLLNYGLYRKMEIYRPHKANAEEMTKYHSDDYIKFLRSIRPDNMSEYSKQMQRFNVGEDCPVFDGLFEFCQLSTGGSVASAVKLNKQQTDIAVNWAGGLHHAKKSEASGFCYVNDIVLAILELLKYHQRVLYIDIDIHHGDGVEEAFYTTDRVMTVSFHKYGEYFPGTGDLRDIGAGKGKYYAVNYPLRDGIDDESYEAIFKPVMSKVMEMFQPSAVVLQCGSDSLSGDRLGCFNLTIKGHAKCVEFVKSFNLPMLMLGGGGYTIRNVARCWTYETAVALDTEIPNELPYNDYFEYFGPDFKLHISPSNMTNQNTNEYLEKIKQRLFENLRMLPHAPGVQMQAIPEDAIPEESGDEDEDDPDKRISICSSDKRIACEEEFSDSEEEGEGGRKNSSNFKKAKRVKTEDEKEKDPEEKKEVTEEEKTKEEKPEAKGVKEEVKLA

As to `O=C(CCCN1CCN(C(=O)Nc2cccc3ncccc23)CC1)NO`, in [1], the CC50 is greater than 100000 nM. For the same molecule, the IC50 against Histone deacetylase 3 is 4.42 nM; in the data set with MCF7 [3], 7190 nM; with Jurkat E6.1, 7190 nM; in the data set with HeLa, 7190 nM; in the data set on B16-F10, 7190 nM; with A549 [8] it was 7190 nM. Moreover, the selectivity ratio in data set [2], in data set [4], in [5], in data set [6] and in data set [7] was greater than 8.7 in each case.
As to `COc1ccc(-c2nc(C(=O)N(CCN(C)C)Cc3ccc(C(=O)NO)cc3)cc3c2[nH]c2ccccc23)cc1`, the IC50 with SMMC-7721, with HepG2, in the data set on NCI-H1299 and in the data set on HCT-116 [9] was 1600 nM each time.
Consider `C[C@H](NC(=O)c1nc(-c2ncc(-c3ccccc3)s2)sc1C1CC1)c1ccc(C(=O)NO)cc1`, for which the inhibition in vivo at 25 mg/kg in the data set with HT-29 [10] was 39.4%. Further, the inhibition in vivo at 100 mg/kg with HT-29 [11] worked out at 62.5%. In the data set on HT-29 [12], the inhibition in vivo at 50 mg/kg was found to be 40.7%.
As to `COc1ccc(-c2ocnc2-c2cc(Br)c(OC)c(OC)c2)cc1OCCCC(=O)NO`, the IC50 came to 18 nM with DLD-1 [13]; 18 nM in the data set on HT-29 [14]; 18 nM with MCF7 [3]; 23900 nM in [17]; 18 nM with 518A2 [18]; 18 nM in the data set on KB-V1 [21]. Also, the “Ratio IC50” value with MCF7 [15], in the data set on 518A2 [16], in the data set with HT-29 [19], with DLD-1 [20], with EA.hy 926 and with KB-V1 [23] was 1.2 in each case. Further, the selectivity ratio in data set [22] was 8.5.
For `Cc1[nH]c2ccccc2c1CCNS(=O)(=O)c1ccc(/C=C/C(=O)NO)cc1`, the IC50 in data set [24] worked out at 5.13 nM; against Histone deacetylase 3 it was 5.13 nM; with HCT-116 [25] it was 29 nM; against Histone deacetylase 1, 5.13 nM; in the data set on ASPC1 [26], 490 nM; in the data set on ASPC1 [27] it was 29 nM. Also, the IC50 was 29 nM in the data set on MDA-MB-231 [28] and 5.13 nM on Histone deacetylase 2. Besides, the inhibition in vivo at 15 mg/kg in the data set with HCT-116 [29] is 50.7%. The concentration for 50% growth inhibition (GI50) in the data set with A549 [30] turned out to be 29 nM.
For `Nn1c(SCCC(=O)NO)nnc1-c1cccnc1`, in the data set on Ehrlich, the survival at 125 mg/kg came out at 205%. The IC50 with MCF7 [31], in the data set with MDA-MB-231 [32] and in the data set on HCT-116 [33] was 10400 nM in each case.

Values taken from ChEMBL document CHEMBL5230103, “Hydroxamic acid hybrids as the potential anticancer agents: An Overview” (Eur J Med Chem, 2020).
